In patent US20080090756A1, “Somatostatin agonists” (The Administrators of the Tulane Educational Fund, priority 2001, published 2008):
Bridge positions count the residues as written; N and C are the ends. Square brackets hold non-standard residues; d marks the D form. Peptide text beside a SMILES is read from it. NMeT = CN[C@H](C(=O)O)[C@@H](C)O

Key:
hSSTR-4 = target: T1, hSSTR-4 (Homo sapiens, UniProt P31391); test: Radioligand binding assay, cloned human somatostatin receptor type 4; conditions: CHO-K1 cell membranes, displacement of [125I]Tyr11-SRIF; mean ± SEM, single values = one experiment; read-out: Kd ± SEM hsst4
T1 construct: each containing the entire coding region of the full-length receptors; expressed in transfected cells
Text: (§1) Functional Expression of the Cloned Human Somatostatin Receptors. The genomic clones containing the human somatostatin receptors (hSSTR-1 to hSSTR-5) (Yamada, Y., et al. al., Proc. Natl. Acad. Sci. USA. 1992, 89, 251-255; Yasuda, K., et al., J. Biol. Chem. 1992, 267, 20422-20428; Yamada, Y., et al., Mol. Pharmacol. 1992, 42, 2136-2142; Rohrer, L., et al., Proc. Natl. Acad. Sci. USA. 1993, 90, 4196-4200.) were kindly provided by Dr. Graeme I. Bell of the University of Chicago. The hSSTR-1, hSSTR-2, hSSTR-3, hSSTR-4 and hSSTR-5 cDNAs were isolated as a 1.5-kb PstI-XmnI fragment, 1.7-kb BamHI-HindIII fragment, 2.0-kb NcoI-HindIII fragment, 1.4-kb NheI-NdeI fragment, and a 1.2-kb HindIII-XbaI fragment, respectively, each containing the entire coding region of the full-length receptors. These fragments were independently subcloned into the corresponding restriction endonuclease sites in the mammalian expression vector pCMV5, downstream from the human cytomegalovirus (CMV) promoter, to produce the expression plasmids pCMV5/hSSTR-1, pCMV5/hSSTR-2, pCMV5/hSSTR-3, pCMV5/hSSTR-4 and pCMV5/hSSTR-5. For transfection into CHO-K1 cells, a plasmid, pRSV-neo (American Type Culture Collection, Rockville, Md.), carrying the neomycin mammalian cell selectable marker was added.
(§2) Receptor Expression and Transfection. Transfections were performed by the calcium phosphate method. CHO-K1 cells were maintained in α-minimum essential medium (α-MEM; Gibco) supplemented with 10% fetal calf serum and transfected with each of the expression plasmids using calcium phosphate precipitation. Clones that had inherited the expression plasmid were selected in α-MEM supplemented with 500 μg mL^−1 of geneticin (G418; Gibco). Independent CHO-K1 clones were picked by glass-ring cloning and expanded in culture in the selective media. Membranes were prepared from the isolated clones and hSSTR expression was initially assessed for binding with [^125I]Tyr^11-SRIF and [^125I]MK-678 (for SSTR-2).
(§3) Radioligand Binding Assays. Cell membranes of the 5 cells types were obtained from homogenates (Polytron setting 6, 15 sec) of the corresponding CHO-K1 cells, in ice-cold Tris-HCl (50 mM) and centrifuged (39000 g, 10 min×2), with an intermediate resuspension in fresh buffer. The final pellets were resuspended in Tris-HCl (10 mM) for assay. Aliquots of the membranes were incubated (30 min at 37° C.) with 0.05 nM [^125I]Tyr^11-SRIF (types 1, 3, 4, 5) or [^125I]MK-678 (type 2) in […] (pH 7.4) containing BSA (10 mg mL^−1); MgCl2 (5 mM), Trasylol (200 kIU mL^−1), bacitracin (0.02 mg mL^−1), and phenylmethanesulfonyl fluoride (0.02 mg mL^−1). The final assay volume was 0.3 mL and incubations were terminated by rapid filtration through GF/C filters pre-soaked in 0.3% poly(ethylenimine) using a Brandel rapid filtration module. Each tube and filter was then washed with aliquots of cold buffer (3×5 mL).
(§4) Specific binding is defined as the total radioligand bound minus that bound in the presence of 1.0 μM SRIF. The following total radioligand binding and non-specific binding (nsb) values were typically obtained with these assay systems: hSSTR-1, 7000 cpm total versus 3500 cpm nsb; hSSTR-2, 9000 cpm total versus 1000 cpm nsb; hSSTR-3, 8000 cpm total versus 1000 cpm nsb; hSSTR-4, 6000 cpm total versus 3500 cpm nsb; and hSSTR-5, 7500 cpm total versus 3500 cpm nsb. The binding affinities are expressed as Ki values ±SEM (nM) for each of the five receptor subtypes. Ki values derived for representative compounds of the instant invention are detailed in Table 2.
(§5) The binding affinities (Kd, nM) of all SRIF analogues were determined using their concentration-dependent displacement of ^125I-radiolabeled peptide ligands from membranes isolated from CHO cells transfected with the corresponding human somatostatin receptor.

hSSTR-5 = target: T2, hSSTR-5 (Homo sapiens, UniProt P35346); test: Radioligand binding assay, cloned human somatostatin receptor type 5; conditions: CHO-K1 cell membranes, displacement of [125I]Tyr11-SRIF; mean ± SEM, single values = one experiment; read-out: Kd ± SEM hsst5
T2 construct: each containing the entire coding region of the full-length receptors; expressed in transfected cells
Text: as §1, §2, §3, §4, §5

hSSTR-2 = target: T3, hSSTR-2 (Homo sapiens, UniProt P30874); test: Radioligand binding assay, cloned human somatostatin receptor type 2; conditions: CHO-K1 cell membranes, displacement of [125I]MK-678; mean ± SEM, single values = one experiment; read-out: Kd ± SEM hsst2
T3 construct: each containing the entire coding region of the full-length receptors; expressed in transfected cells
Text: as §1, §2, §3, §4, §5

hSSTR-1 = target: T4, hSSTR-1 (Homo sapiens, UniProt P30872); test: Radioligand binding assay, cloned human somatostatin receptor type 1; conditions: CHO-K1 cell membranes, displacement of [125I]Tyr11-SRIF; mean ± SEM, single values = one experiment; read-out: Kd ± SEM hsst1
T4 construct: each containing the entire coding region of the full-length receptors; expressed in transfected cells
Text: as §1, §2, §3, §4, §5

hSSTR-3 = target: T5, hSSTR-3 (Homo sapiens, UniProt P32745); test: Radioligand binding assay, cloned human somatostatin receptor type 3; conditions: CHO-K1 cell membranes, displacement of [125I]Tyr11-SRIF; mean ± SEM, single values = one experiment; read-out: Kd ± SEM hsst3
T5 construct: each containing the entire coding region of the full-length receptors; expressed in transfected cells
Text: as §1, §2, §3, §4, §5

[1] = test system: Culture Rat Pituitary Cells; assay type: cell-based; conditions: inhibition of GH release, dispersed rat anterior pituitary cells, GHRH(1-29)NH2 1 nM, 3 h at 37° C.; mean ± SEM of (n) dose response curves; read-out: Agonist IC50 ± SEM (n)
Procedure: SRIF Analogue Inhibition of GH Release. Anterior pituitaries from adult male rats were collected and dispersed by a previously described trypsin/DNase method. […] The cells were randomly plated at a density of approximately 200,000 cells/well (Costar cluster 24; Rochester Scientific Co., Rochester, N.Y.). […] In preparation for a hormone challenge, the cells were washed with medium 199 (Gibco, 3×1 mL). Each dose of a compound of this invention was tested in triplicate wells in a total volume of 1 mL medium 199 containing 1% BSA (fraction V; Sigma Chemical Co.). All wells contained GHRH(1-29)NH2 (1 nM). After incubation in an air/carbon dioxide atmosphere (95/5%, 3 h at 37° C.), the medium was removed and stored at −20° C. until assayed for hormone content. Growth hormone in media was measured by a standard double antibody RIA using components generously supplied by Dr. A. F. Parlow at the National Hormone and Pituitary Program (NHHP) Torrance, Calif. Agonist IC50's were calculated using Sigmaplot (Jandel Scientific, San Rafael, Calif.). Values are expressed as the mean IC50 (nM)±SEM from (n) separate dose-response curves.

T3 sequence (P30874 whole entry): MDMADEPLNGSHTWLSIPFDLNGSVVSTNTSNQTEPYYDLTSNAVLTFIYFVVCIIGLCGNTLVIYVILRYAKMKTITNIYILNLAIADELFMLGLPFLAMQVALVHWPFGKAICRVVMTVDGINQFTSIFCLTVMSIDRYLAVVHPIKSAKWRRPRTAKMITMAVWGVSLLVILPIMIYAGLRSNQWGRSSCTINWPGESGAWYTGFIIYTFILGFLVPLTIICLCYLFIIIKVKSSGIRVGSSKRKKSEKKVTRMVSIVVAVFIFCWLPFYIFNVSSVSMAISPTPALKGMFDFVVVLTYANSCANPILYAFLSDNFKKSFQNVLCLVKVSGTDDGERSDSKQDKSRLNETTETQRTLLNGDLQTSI
T2 sequence (P35346 whole entry): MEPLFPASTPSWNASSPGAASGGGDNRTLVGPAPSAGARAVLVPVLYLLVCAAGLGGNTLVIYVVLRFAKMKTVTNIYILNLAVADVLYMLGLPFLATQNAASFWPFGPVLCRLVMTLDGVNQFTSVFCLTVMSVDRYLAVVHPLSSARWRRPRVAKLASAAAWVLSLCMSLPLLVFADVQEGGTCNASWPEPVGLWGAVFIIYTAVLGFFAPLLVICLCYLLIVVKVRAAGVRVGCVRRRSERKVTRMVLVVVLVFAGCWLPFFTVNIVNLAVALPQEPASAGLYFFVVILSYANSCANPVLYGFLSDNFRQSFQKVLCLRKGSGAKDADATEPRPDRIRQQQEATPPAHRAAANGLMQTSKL
T1 sequence (P31391 whole entry): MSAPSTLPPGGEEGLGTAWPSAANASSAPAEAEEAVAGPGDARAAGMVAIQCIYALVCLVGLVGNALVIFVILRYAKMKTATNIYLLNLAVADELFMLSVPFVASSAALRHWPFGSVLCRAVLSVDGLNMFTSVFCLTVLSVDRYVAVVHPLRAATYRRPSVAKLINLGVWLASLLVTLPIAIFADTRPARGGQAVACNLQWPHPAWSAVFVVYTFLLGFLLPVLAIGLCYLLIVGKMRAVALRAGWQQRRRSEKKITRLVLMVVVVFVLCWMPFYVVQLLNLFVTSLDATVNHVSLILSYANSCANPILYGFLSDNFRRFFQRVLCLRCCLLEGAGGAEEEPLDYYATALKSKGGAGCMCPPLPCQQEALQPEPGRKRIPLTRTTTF
T5 sequence (P32745 whole entry): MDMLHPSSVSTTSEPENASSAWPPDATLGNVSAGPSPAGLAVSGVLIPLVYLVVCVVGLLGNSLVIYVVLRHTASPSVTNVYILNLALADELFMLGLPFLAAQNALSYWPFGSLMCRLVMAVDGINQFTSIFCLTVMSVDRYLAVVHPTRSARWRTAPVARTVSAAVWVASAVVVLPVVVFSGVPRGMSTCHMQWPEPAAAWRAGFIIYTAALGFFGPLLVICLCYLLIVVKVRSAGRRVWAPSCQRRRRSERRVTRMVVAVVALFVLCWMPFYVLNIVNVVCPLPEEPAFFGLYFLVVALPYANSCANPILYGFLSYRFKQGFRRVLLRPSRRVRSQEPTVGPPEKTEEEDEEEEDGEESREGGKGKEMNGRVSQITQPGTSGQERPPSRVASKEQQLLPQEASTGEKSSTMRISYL
T4 sequence (P30872 whole entry): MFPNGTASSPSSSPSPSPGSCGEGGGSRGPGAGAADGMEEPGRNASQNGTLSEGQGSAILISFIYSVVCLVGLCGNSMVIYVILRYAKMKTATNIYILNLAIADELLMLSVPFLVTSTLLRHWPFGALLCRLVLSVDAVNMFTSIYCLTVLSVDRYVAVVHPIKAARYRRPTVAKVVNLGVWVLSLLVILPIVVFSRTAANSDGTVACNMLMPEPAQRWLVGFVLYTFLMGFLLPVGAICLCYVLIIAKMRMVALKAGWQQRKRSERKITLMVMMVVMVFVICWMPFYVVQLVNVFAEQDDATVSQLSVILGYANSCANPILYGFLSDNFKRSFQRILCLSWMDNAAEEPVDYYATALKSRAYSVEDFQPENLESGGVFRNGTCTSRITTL

Compound | Kd (hSSTR-4) [nM] | Kd (hSSTR-5) [nM] | Kd (hSSTR-2) [nM] | Kd (hSSTR-1) [nM] | Kd (hSSTR-3) [nM] | IC50 [1] [nM]
C[C@@H](O)[C@H](NC(=O)[C@@H]1CSSC[C@H](NC(=O)[C@H](N)Cc2ccccc2)C(=O)N[C@@H](Cc2ccccc2)C(=O)N[C@H](Cc2c[nH]c3ccccc23)C(=O)N[C@@H](CCCCN)C(=O)N[C@@H]([C@@H](C)O)C(=O)N1C)C(N)=O [Example 7, DPhe-cyclo(Cys-Phe-DTrp-Lys-Thr-NMeCys)-Thr-NH2] | 574 | 28.4 ± 19.3 | 56.2 ± 26.4 | 622 ± 172 | – | –
C[C@@H](O)[C@H](NC(=O)[C@@H]1CSSC[C@H](NC(=O)[C@@H](N)Cc2ccc(O)cc2)C(=O)N[C@@H](Cc2ccccc2)C(=O)N[C@H](Cc2c[nH]c3ccccc23)C(=O)N[C@@H](CCCCN)C(=O)N(C)[C@@H]([C@@H](C)O)C(=O)N1)C(N)=O [Example 15, Tyr-cyclo(Cys-Phe-DTrp-Lys-NMeThr-Cys)-Thr-NH2] (H-YCF[dW]K[NMeT]CT-NH2; disulfide 2-7; N-terminus assumed) | ≥ 1000 | 92.79 ± 0.7 | 61.3 ± 6.95 | 1000 | 440 ± 126 | –
C[C@H](N)C(=O)NCC(=O)N[C@H]1CSSC[C@@H](C(=O)O)NC(=O)[C@H](CO)NC(=O)[C@H]([C@@H](C)O)NC(=O)[C@H](Cc2ccccc2)NC(=O)[C@H]([C@@H](C)O)NC(=O)[C@H](CCCCN)NC(=O)[C@H](Cc2c[nH]c3ccccc23)NC(=O)[C@H](Cc2ccccc2)NC(=O)[C@H](Cc2ccccc2)NC(=O)[C@H](CC(N)=O)NC(=O)[C@H](CCCCN)NC1=O [SRIF-14] | – | – | – | – | – | 0.17 ± 0.054
SRIF-28 | – | – | – | – | – | 0.23 ± 0.052

Continued, in another order:

Kd (hSSTR-4) [nM] | Kd (hSSTR-5) [nM] | Kd (hSSTR-2) [nM] | Kd (hSSTR-1) [nM] | Kd (hSSTR-3) [nM] | Compound | IC50 [1] [nM]
> 1000 | 23.7 | 1.04 ± 0.18 | 378 ± 119 | 13 ± 0.5 | C[C@@H](O)[C@H](NC(=O)[C@@H]1CSSC[C@H](N(C)C(=O)[C@H](N)Cc2ccccc2)C(=O)N[C@@H](Cc2ccccc2)C(=O)N[C@H](Cc2c[nH]c3ccccc23)C(=O)N[C@@H](CCCCN)C(=O)N[C@@H]([C@@H](C)O)C(=O)N1)C(N)=O [Example 2, DPhe-cyclo(NMeCys-Phe-DTrp-Lys-Thr-Cys)-Thr-NH2] | –
> 1000 | 0.61 ± 0.36 | – | 1200 | – | C[C@@H](O)[C@H](NC(=O)[C@@H]1CSSC[C@H](NC(=O)[C@H](N)Cc2ccccc2)C(=O)N[C@@H](Cc2ccccc2)C(=O)N(C)[C@H](Cc2c[nH]c3ccccc23)C(=O)N[C@@H](CCCCN)C(=O)N[C@@H]([C@@H](C)O)C(=O)N1)C(N)=O [Example 4, DPhe-cyclo(Cys-Phe-NMeDTrp-Lys-Thr-Cys)-Thr-NH2] | –
> 1000 | > 1000 | > 1000 | > 1000 | > 1000 | C[C@@H](O)[C@H](NC(=O)[C@@H]1CSSC[C@H](NC(=O)[C@H](N)Cc2ccccc2)C(=O)N[C@@H](Cc2ccccc2)C(=O)N[C@H](Cc2c[nH]c3ccccc23)C(=O)N[C@@H](CCCCN)C(=O)N(C)[C@@H]([C@@H](C)O)C(=O)N1)C(N)=O [Example 6, DPhe-cyclo(Cys-Phe-DTrp-Lys-NMeThr-Cys)-Thr-NH2] | –
